In US20240383869A1, “ARYLACETYL INHIBITORS OF TG2 AND USES THEREOF” (UNIVERSITY OF OTTAWA, priority 2021, published 2024):
Like-named read-outs stand apart in the source and are kept apart here.

How the values were obtained:
SCC-13 cells = experiment: ECS cell invasion through Matrigel (Transwell); type: cell-based; conditions: 0-100 μM inhibitor, 18 h, read-out: EC50 for inhibition of ECS invasion
Experimental: One well-known property of tumour-initiating cells associated with cancer metastasis is the enhanced ability to invade Matrigel (collagen). For example, it has been shown that epidermal cancer stem (ECS) cells invade Matrigel more efficiently than non-stem cancer cells, and that these properties are associated with enhanced tumour formation (Adhikary, G. et al., PLoS ONE 2013, 8, e84324. https://doi.org/10.1371/journal.pone.0084324). We have shown previously that ˜20 μM of NC9 and 3.9 μM of VA4 can reduce ECS cell invasion through Matrigel by ˜50% relative to vehicle-treated cells (Akbar, A. et al., J. Med. Chem. 2017, 60, 7910-7927. https://doi.org/10.1021/acs.jmedchem.7b01070; Fisher, M. L. et al., Oncotarget 2015, 6, 20525-20539. https://doi.org/10.18632/oncotarget.3890).
Materials and Methods for cell invasion data. To measure cell invasion, Matrigel (Corning, catalogue no. 354234) was diluted to 250 μg/mL and 120 μL was added to the upper chambers of a Transwell plate (Corning, no. 353097, 1-cm diameter, 8-μm pore size) and allowed to solidify. SCC-13 cells were suspended in spheroid medium (Fisher, M. L. et al., Cancer Res. 2016, 76, 7265-7275. https://doi.org/10.1158/0008-5472.can-16-2032; Adhikary, G. et al., Carcinogenesis 2015, 36, 800-810. https://doi.org/10.1093/carcin/bgv064) containing 1% foetal calf serum (FCS), and 20,000 cells were plated into each upper chamber atop the Matrigel. The bottom chamber contained spheroid medium supplemented with 10% FCS and 0-100 μM of inhibitor. After incubation for 18 h in a 37° C. incubator, cells in the top chamber were removed with a swab and cells on the lower surface of the membrane were fixed with 4% paraformaldehyde and the nuclei were stained with 4′,6-diamidino-2-phenylindole. Cell number was counted in multiple fields (n=4) using a fluorescence microscope, normalized with respect to the number counted in the presence of vehicle only, and expressed as mean±standard deviation.

MDCK − MDR1 = experiment: MDCK-MDR1 permeability; type: in vitro ADME; conditions: for MDCK − MDR1 Papp (A→B): apical to basolateral; for MDCK − MDR1 Papp (B→A): basolateral to apical
hTG2 = molecular target: T1, hTG2 (Homo sapiens, UniProt P21980); experiment: biochemical; conditions: for Ki: read-out: KI (converted); for inactivation of TG2: isozyme selectivity, normalized [I]/α
T1 sequence (P21980 1-687): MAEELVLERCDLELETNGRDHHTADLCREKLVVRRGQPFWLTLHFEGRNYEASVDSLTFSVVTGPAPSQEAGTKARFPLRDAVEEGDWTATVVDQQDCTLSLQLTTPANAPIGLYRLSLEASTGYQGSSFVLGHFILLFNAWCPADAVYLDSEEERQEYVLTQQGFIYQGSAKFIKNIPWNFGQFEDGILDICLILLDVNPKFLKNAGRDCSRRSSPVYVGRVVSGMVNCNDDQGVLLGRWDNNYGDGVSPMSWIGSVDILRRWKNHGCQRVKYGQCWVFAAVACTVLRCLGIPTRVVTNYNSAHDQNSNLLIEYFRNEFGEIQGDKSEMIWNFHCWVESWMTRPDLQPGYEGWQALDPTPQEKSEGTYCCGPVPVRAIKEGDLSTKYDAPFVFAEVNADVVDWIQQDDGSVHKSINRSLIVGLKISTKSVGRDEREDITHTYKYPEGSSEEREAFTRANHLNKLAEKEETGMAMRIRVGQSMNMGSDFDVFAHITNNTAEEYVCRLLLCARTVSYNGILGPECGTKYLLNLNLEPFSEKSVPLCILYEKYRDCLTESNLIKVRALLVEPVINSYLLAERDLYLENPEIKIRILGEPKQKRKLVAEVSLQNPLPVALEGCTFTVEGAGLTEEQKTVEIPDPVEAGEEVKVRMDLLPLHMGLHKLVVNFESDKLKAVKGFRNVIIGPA

Plasma stability = type: in vitro ADME
[1] = Metabolic stability in human hepatocyte model; type: in vitro ADME; conditions: hepatocytes; for hepatocyte CLint: calculated intrinsic clearance; for half-life: read-out: Hepatocyte t½
Experimental: The metabolic stabilities of inhibitors 72 and 74 were also evaluated in a human hepatocyte model. The half-lives and calculated intrinsic clearance shown in Table 6 are indicative of moderate stability.

[2] = PAMPA passive diffusion across a lipid membrane; type: in vitro ADME
Experimental: Passive diffusion across a lipid membrane was measured by PAMPA for both inhibitors 72 and 74. The values shown in Table 6 indicate both compounds were at least moderately permeant.

Protein binding = type: in vitro ADME
[3] = fit to saturation kinetics model, 25° C., pH 6.95, 100 μM AL5

Row | SMILES | EC50 (SCC-13 cells) [µM] | MDCK − MDR1 Efflux Ratio (MDCK − MDR1) | MDCK − MDR1 Papp (A→B) (MDCK − MDR1) | MDCK − MDR1 Papp (B→A) (MDCK − MDR1) | Ki (hTG2; [3]) [µM] | kinact (hTG2; fit to saturation kinetics model, 25° C., pH 6.95, 100 μM AL5, read-out: kinact (converted)) [s⁻¹] | kinact/KI (hTG2; fit to saturation kinetics model, 25° C., pH 6.95, 100 μM AL5, read-out: kinact/KI (converted)) [M⁻¹ s⁻¹] | inactivation of TG2 (hTG2) | Plasma t½ (Plasma stability) [h] | hepatocyte CLint [1] [µL/min/1e6 cells] | half-life [1] [h] | PAMPA −Log [Pe (cm/s)] [2] | Protein Binding (Protein binding) [%] | Protein Binding Recovery (Protein binding) [%] | kinact/KI (hTG2; pH 6.95) [M⁻¹ s⁻¹]
1 | C=CC(=O)NCCCC[C@H](NC(=O)Cc1ccccc1C)C(=O)N1CCN(C(=O)c2cccc3ccccc23)CC1 [Inhibitor 74, (S)-N-(6-(4-(1-naphthoyl)piperazin-1-yl)-5-(2-(2-methylphenyl)acetamido)-6-oxohexyl)acrylamide] | 119 ± 5 | 51.6 | 0.32 10^−6 cm/s | 16.5 10^−6 cm/s | 6.1 ± 1.8 | 0.035 | 5870 | inactivated TG2 almost completely, in less than five minutes | 9.47 | 5.58 | 4.18 | 5.03 | 85 | 93 | –
2 | C=CC(=O)NCCCC[C@H](NC(=O)Cc1ccccc1F)C(=O)N1CCN(C(=O)c2cccc3ccccc23)CC1 [Inhibitor 72, (S)-N-(6-(4-(1-naphthoyl)piperazin-1-yl)-5-(2-(2-fluorophenyl)acetamido)-6-oxohexyl)acrylamide] | 77 | – | 0.29 10^−6 cm/s | 18.2 10^−6 cm/s | 1 ± 0.2 | – | – | inactivated TG2 almost completely, in less than five minutes | 17.92 | 2.37 | 9.73 | 5.44 | 84 | 86 | –
3 | C=CC(=O)NCCCC[C@H](NC(=O)OCc1ccccc1)C(=O)N1CCN(C(=O)c2cccc3ccccc23)CC1 [AA9, reference compound] | – | – | – | – | – | – | – | inactivated TG2 almost completely, in less than five minutes | – | – | – | – | – | – | 4070
